The term IC50 denotes the concentration that gives 50% inhibition.

Consider 13 molecules from patent US11998539B2, “Substituted aminoquinolones as DGKalpha inhibitors for immune activation” (Bayer Aktiengesellschaft, priority 2019, dated 2024).

Molecules are shown by their SMILES.

Chain of DGKα (P23743 other isoform, or with tags, fused parts or gaps): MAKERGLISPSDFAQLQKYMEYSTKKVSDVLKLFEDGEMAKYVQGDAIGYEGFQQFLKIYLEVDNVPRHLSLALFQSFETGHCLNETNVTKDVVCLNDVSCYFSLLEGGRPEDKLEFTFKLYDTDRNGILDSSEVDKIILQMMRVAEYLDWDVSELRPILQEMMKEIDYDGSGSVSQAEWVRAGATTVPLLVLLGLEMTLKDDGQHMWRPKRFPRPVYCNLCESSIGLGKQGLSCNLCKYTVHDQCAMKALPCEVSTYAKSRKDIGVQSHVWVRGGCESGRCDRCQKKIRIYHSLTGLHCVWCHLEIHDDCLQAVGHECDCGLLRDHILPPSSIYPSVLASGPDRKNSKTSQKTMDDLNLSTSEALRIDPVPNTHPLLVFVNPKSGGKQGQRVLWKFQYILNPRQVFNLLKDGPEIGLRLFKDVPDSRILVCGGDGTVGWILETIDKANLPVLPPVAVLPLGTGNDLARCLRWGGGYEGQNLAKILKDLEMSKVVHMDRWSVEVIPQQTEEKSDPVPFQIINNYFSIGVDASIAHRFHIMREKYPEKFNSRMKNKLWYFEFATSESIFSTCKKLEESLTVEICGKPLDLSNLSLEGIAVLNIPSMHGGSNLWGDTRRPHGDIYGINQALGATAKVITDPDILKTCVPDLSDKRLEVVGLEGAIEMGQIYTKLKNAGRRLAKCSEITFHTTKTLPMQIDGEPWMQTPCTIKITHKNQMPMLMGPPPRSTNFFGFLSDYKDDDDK

In this assay the target is DGKα (Homo sapiens (Human), UniProt P23743). Briefly: Human DGKα kinase activity inhibition assay (ADP-Glo). The assay is classed as biochemical. The following applies: recombinant full-length human DGKα, 55 μM ATP, 7 μM 1,2-dioleoyl-sn-glycerol, read-out: IC50 values of examples in in vitro human DGKa kinase activity inhibition assays. In short, it runs like this:
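Activity was measured as ADP production, detected by luciferase luminescence after removal of unused ATP. The enzyme was baculovirus-expressed full-length human DGKα with a C-terminal FLAG tag. The substrate was 1,2-dioleoyl-sn-glycerol in detergent micelles, and compounds came from 100× DMSO solutions.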
With `Cc1ccc2c(c1)c(N1CCC(c3nc4cc(Cl)ccc4o3)CC1)c(C#N)c(=O)n2C` [Example 185, 4-[4-(5-chloro-1,3-benzoxazol-2-yl)piperidin-1-yl]-1,6-dimethyl-2-oxo-1,2-dihydroquinoline-3-carbonitrile], the IC50 was determined as 2.9 nM.
As to `Cn1c(=O)c(C#N)c(N2CCC(c3nc4cc(F)c(F)cc4o3)CC2)c2cccc(Br)c21` [Example 160, 8-bromo-4-[4-(5,6-difluoro-1,3-benzoxazol-2-yl)piperidin-1-yl]-1-methyl-2-oxo-1,2-dihydroquinoline-3-carbonitrile], the IC50 was 544 nM.
As for `Cc1ccc2oc(C3CCN(c4c(C#N)c(=O)n(C)c5cc(O[C@@H]6CCOC6)c(Br)cc45)CC3)nc2c1` [Example 537, (−)-6-bromo-1-methyl-4-[4-(5-methyl-1,3-benzoxazol-2-yl)piperidin-1-yl]-2-oxo-7-{[(3R)-oxolan-3-yl]oxy}-1,2-dihydroquinoline-3-carbonitrile], the IC50 was determined as 0.2 nM.
To `Cn1c(=O)c(C#N)c(N2CCC(c3ccc(OCC(F)(F)F)cc3)CC2)c2ccccc21` [Example 37, 1-methyl-2-oxo-4-{4-[4-(2,2,2-trifluoroethoxy)phenyl]piperidin-1-yl}-1,2-dihydroquinoline-3-carbonitrile] belongs 1.1 nM.
As for `Cn1c(=O)c(C#N)c(N2CCC(c3cccc(Br)c3)CC2)c2ccccc21` [Example 85], the IC50 is 54 nM.
As for `COc1ccc2c(c1)c(N1CCC(c3nc(-c4ccccc4)no3)CC1)c(C(N)=O)c(=O)n2C` [Example 521, 6-methoxy-1-methyl-2-oxo-4-[4-(3-phenyl-1,2,4-oxadiazol-5-yl)piperidin-1-yl]-1,2-dihydroquinoline-3-carboxamide], the IC50 was determined as 43 nM.
To `Cc1ccc2c(N3CCC(c4ccccc4)CC3)c(C#N)c(=O)n(C)c2c1` [Example 255, 1,7-dimethyl-2-oxo-4-(4-phenylpiperidin-1-yl)-1,2-dihydroquinoline-3-carbonitrile] belongs 18 nM; to `COCCc1cccc2oc(C3CCN(c4c(C#N)c(=O)n(C)c5ccccc45)CC3)nc12` [Example 265, 4-{4-[4-(2-methoxyethyl)-1,3-benzoxazol-2-yl]piperidin-1-yl}-1-methyl-2-oxo-1,2-dihydroquinoline-3-carbonitrile], 49 nM; to `COc1cc2c(cc1Cl)c(N1CCC(c3nc4cc(C)ccc4o3)CC1)c(C#N)c(=O)n2C` [Example 566, 6-chloro-7-methoxy-1-methyl-4-[4-(5-methyl-1,3-benzoxazol-2-yl)piperidin-1-yl]-2-oxo-1,2-dihydroquinoline-3-carbonitrile], 0.3 nM.
In the case of `Cc1ccc2oc(C3CCN(c4c(C(N)=O)c(=O)n(C)c5ccc(Br)cc45)CC3)nc2c1` [Example 492, 6-bromo-1-methyl-4-[4-(5-methyl-1,3-benzoxazol-2-yl)piperidin-1-yl]-2-oxo-1,2-dihydroquinoline-3-carboxamide], the IC50 was 1.5 nM.
As for `Cn1c(=O)c(C#N)c(N2CCC(c3nc4ccc(Cl)cc4o3)CC2)c2cccc(Br)c21` [Example 157, 8-bromo-4-[4-(6-chloro-1,3-benzoxazol-2-yl)piperidin-1-yl]-1-methyl-2-oxo-1,2-dihydroquinoline-3-carbonitrile], the IC50 is 252 nM.
With `Cc1ccc2oc(C3(C)CCN(c4c(C#N)c(=O)n(C)c5c(C#N)cccc45)CC3)nc2c1` [Example 163, 1-methyl-4-[4-methyl-4-(5-methyl-1,3-benzoxazol-2-yl)piperidin-1-yl]-2-oxo-1,2-dihydroquinoline-3,8-dicarbonitrile], the IC50 worked out at 146 nM.
Take `Cn1c(=O)c(C#N)c(N2CCC(c3nc4ccccc4s3)CC2)c2ccc(Br)cc21` [Example 33, 4-[4-(1,3-benzothiazol-2-yl)piperidin-1-yl]-7-bromo-1-methyl-2-oxo-1,2-dihydroquinoline-3-carbonitrile]: the IC50 worked out at 6.2 nM.
